Test results published in patent US20140275090A1, “BILE ACID RECYCLING INHIBITORS FOR TREATMENT OF PRIMARY SCLEROSING CHOLANGITIS AND INFLAMMATORY BOWEL DISEASE” (Lumena Pharmaceuticals, Inc., priority 2013, published 2014).

Assays:
[1] = tested on: serum bile acids; experiment: Time to onset of activity of LUM001 on postprandial serum total bile acids (SBA) in beagle dogs; format: in vivo; settings: dog SBA model, oral, 1 hour after feeding
Protocol: LUM001 was dissolved in water at concentrations that required the administration of 0.2 ml/kg of solution. Solutions were placed into gelatin capsules, Torpac Inc., size 13 Batch 594, East Hanover N.J., and administered orally.
Male beagle dogs were obtained from Covance Research Products, Cumberland Va. or Marshall Farms USA, Inc., North Rose N.Y. A total of 20 dogs, 1 to 5 years old, 6.8 to 15.6 kg body weight, were used in these experiments. The dogs were conditioned to a 12 hour light/dark cycle and maintained on a feeding restriction of 1 hour per day access to food (Richman Standard Certified Canine Diet #5007, PMI Nutrition, Inc., St. Louis Mo.) from 7 to 8 AM. They were trained to eat a special meal promptly within 20 minutes when presented (1 can. 397 g, Evanger's 100% Beef for Dogs, Evanger's Dog and Cat Food Co., Inc., Wheeling Ill., mixed with 50 g of sharp cheddar cheese.).
SBA was measured by an enzymatic assay. SBA values are expressed as […] of total bile acids/ml of serum.
To estimate the details of this plateau, 6 dogs were given a test meal and blood samples for SBA measurement were collected at −30, 0, 30, 60, 65, 70, 80, 90, 120, 180, 240, 360, 480, 720, 1410 and 1440 minutes from the time of feeding. Any remaining food was removed 20 min after it was first presented to the dogs. […]

[2] = tested on: fecal bile acids; experiment: Phase 1 ascending multiple oral doses of LUM001 in healthy adults: fecal bile acid analysis; format: in vivo, human; settings: 28 days
Protocol: This Phase 1 study was a randomized, double-blind, placebo-controlled study of ascending multiple oral doses of LUM001 in healthy, adult subjects. This study was conducted at a single center. There were 13 LUM001 dosing panels: 10, 20, 60, 100, and 20 mg every morning (qAM) (2) (i.e., the regimen was tested a second time in the study), 5 mg every evening (qPM), 0.5, 1, 2.5, 5, 2.5 (2), 5 (2), and 0.5 to 5 mg qAM dose titration. Most of the dosing panels included subjects treated with matching placebo. No subject participated in more than 1 dosing panel. […]
On Day 1 of the Treatment Period, subjects who qualified for enrollment were randomized in the order in which they were admitted to the research facility. […] The safety and tolerability of LUM001 were evaluated by physical examination, ascertainment of adverse signs and symptoms, and clinical laboratory studies. […]
Fecal samples were collected for all panels except the dose-titration panel, 2.5 (2) and 5 mg (2), on Days 9 through 14 and 23 through 28 (data shown in FIG. 6; *p<0.05; **p<0.01 compared to placebo). Twenty-four hour FBA excretions were quantified by Pharmacia for Days 9 through 14 and 23 through 28. […] The weight of each 24-hour fecal collection was recorded on the CRFs. […]
An aliquot for each 24-hour fecal sample collected on Days 23 through 28 was combined, homogenized, and analyzed for bile acid species concentrations by ANAPHARM. […]

CCCCC1(CCCC)CS(=O)(=O)c2ccc(N(C)C)cc2[C@@H](c2ccc(OCc3ccc(C[N+]45CCN(CC4)CC5)cc3)cc2)[C@H]1O [LUM001]
threshold dose [1]: 0.05 mg/kg
effect on fecal bile acids [2]: significant increase
